Measured values as given in patent publication US4927817A, “Preventive and therapeutic agent against liver disorder” (Zeria Pharmaceutical Co., Ltd., priority 1986, dated 1990).
“Also recorded” adds a separate entry of the source.

Tests used:
[1] = tested on: hepatic cells; experiment: histopathological examination of isolated liver (H-E staining) in rats given carbon tetrachloride; type: in vivo, male Wistar rats
Procedure: (§1) Carnosine zinc salt was suspended in 0.5% sodium carboxymethyl cellulose (CMC) solution to prepare 60 mg/ml and 20 mg/ml suspensions. This was given to rats orally every day for 8 days at the rate of 0.5 ml/100 g so that the dosage was to be 300 mg/kg and 100 mg/kg, respectively. To the control group, the same volume of 0.5% CMC was given.
(§2) To prepare the model animals with liver disorder caused by carbon tetrachloride, carbon tetrachloride mixed in olive oil to have a 10% (V/V) mixture was given orally at the rate of 4 ml/kg (0.4 ml/kg as carbon tetrachloride) one hour after the final administration of carnosine zinc salt or 0.5% CMC. The animals were anesthetized by intraperitoneal injection of pentobarbital at 24 hours after carbon tetrachloride was given, and blood was collected from carotid arteries. The blood was centrifuged at 3000 rpm for 15 minutes to fractionate serum, and GOT and GPT were determined (Reitman Frankel and Momose modification).
From the isolated liver, the paraffined sections were prepared, stained by H-E staining and were examined by histopathological examination.
For the experiment, male Wistar rats were used. […]

[2] = tested on: hepatitis experimentally induced by carbon tetrachloride; experiment: carnosine zinc salt given after liver disorder had actually occurred (carbon tetrachloride hepatitis); type: in vivo, model animals; conditions: CCl4 hepatitis
[3] = tested on: liver disorder caused by carbon tetrachloride; experiment: prevention of experimental liver disorder in rat caused by carbon tetrachloride: serum GOT and GPT; type: in vivo, male Wistar rats; conditions: for GOT (serum) / GPT (serum): CCl4 0.4 ml/kg oral 1 h after last dose, blood at 24 h; for GOT (serum): CCl4 + CMC control 2115.9 ± 260.2; for GPT (serum): CCl4 + CMC control 2243.8 ± 333.0
Procedure: as §1, §2
For the experiment, male Wistar rats were used. With 10 rats in each group, they were divided into three groups: the group given with carbon tetrachloride (CCl4) and 0.5% CMC only (CCl4 +CMC), the group given with carbon tetrachloride and 300 mg/kg or 100 mg/kg of carnosine zinc salt (CCl4 +carnosine zinc salt) and the group given with 0.5% CMC only (CMC).

[4] = acute toxicity test, oral; type: in vivo, female and male Wistar rats
Excerpt: In the acute toxicity test, female and male Wistar rats, each with body weight 150-200 g, were divided into the groups with 10 rats each, and 10 g/kg each of carnosine zinc salt was given orally.

[5] = 100 mg/kg oral daily for 8 days
[6] = 300 mg/kg oral daily for 8 days

NCCC(=O)[N-][C@@H](Cc1c[nH]cn1)C(=O)[O-].[Zn+2] [carnosine zinc salt, L-carnosine zinc salt]
necrosis of hepatic cells and fat formation ([1]; group given carnosine zinc salt, CCl4 rats): suppression of necrosis of hepatic cells and fat formation | degree of necrosis of hepatic cells ([1]; improvement of liver disorder): reduction of the degree of necrosis of hepatic cells | preventive effect when given after liver disorder had occurred [2]: the same preventive effect was obtained | GOT (serum) [3, 5]: 2167.7 ± 777.5 KU | GPT (serum) [3, 5]: 1917.7 ± 748.6 KU | GPT and GOT in blood, statistical significance ([3]; 300 mg/kg administration group, risk rate of 1%): significantly decreased at risk rate of 1% | GOT (serum) [3, 6]: 629.7 ± 121.2 KU | GPT (serum) [3, 6]: 427.7 ± 69.4 KU | increase of hepatic enzymes in blood ([3]; given before liver disorder occurs, CCl4 hepatitis): effectively prevented | increase of GPT and GOT in blood ([3]; oral, depending upon the dosage, CCl4 rats): significant decline in the increase of GPT and GOT in blood; also recorded: suppresses increase of GPT and GOT in blood, depending upon the dosage | prevention of experimental liver disorder caused by carbon tetrachloride ([3]; oral, rat): effect of carnosine zinc salt to prevent the experimental liver disorder caused by carbon tetrachloride | death in acute toxicity test ([4]; 10 g/kg oral, observation for 7 days, female and male rats): no case of death | acute toxicity ([4]; oral): very weak toxicity; also recorded: extremely weak
